Data as given in patent publication US20070128217A1 (priority 2003, published 2007).

Tests used:
[1] = test system: antibodies in sera from SARS patients (sera 1a, 1b, 2, 6, 37, 62, London, SARS-yellow, SARS-green); assay type: binding, human; set-up: Binding of serum 6 to linear peptides of protein X1 of SARS-CoV Urbani / Binding of serum 37 to linear peptides of protein X1 of SARS-CoV Urbani / Binding of serum 6 to looped/cyclic peptide (PEPSCAN-ELISA) / Binding of serum 37 to looped/cyclic peptide (PEPSCAN-ELISA) / Binding of serum 37 to looped/cyclic peptides of protein X1 of SARS-CoV Urbani / Binding of serum 6 to linear peptides of protein X2 / Binding of serum 37 to linear peptides of protein X2 / Binding of serum 37 to looped/cyclic peptides of protein X2 of SARS-CoV Urbani / Binding of serum 6 to linear peptides of protein M of SARS-CoV Urbani / Binding of serum 37 to linear peptides of protein M of SARS-CoV Urbani / Binding of serum 6 to looped/cyclic peptides of protein M of SARS-CoV Urbani / Binding of serum 37 to looped/cyclic peptides of protein M of SARS-CoV Urbani / Binding of serum 6 to linear peptides of protein X3 of SARS-CoV Urbani / Binding of serum 37 to linear peptides of protein X3 of SARS-CoV Urbani / Binding of serum 37 to looped/cyclic peptides of protein X3 of SARS-CoV Urbani / Binding of serum 6 to linear peptides of protein X4 of SARS-CoV Urbani / Binding of serum 37 to linear peptides of protein X4 of SARS-CoV Urbani / Binding of serum 37 to looped/cyclic peptides of protein X4 of SARS-CoV Urbani / Binding of serum 6 to linear peptides of protein X5 of SARS-CoV Urbani / Binding of serum 37 to linear peptides of protein X5 of SARS-CoV Urbani / Binding of serum 37 to looped/cyclic peptides of protein X5 of SARS-CoV Urbani / Binding of serum 6 to linear peptides of protein N of SARS-CoV Urbani / Binding of serum 37 to linear peptides of protein N of SARS-CoV Urbani / Binding of serum 6 to linear peptide (PEPSCAN-ELISA) / Binding of serum 1a to looped/cyclic peptides of protein N of SARS-CoV Urbani / Binding of serum 1b to looped/cyclic peptides of protein N of SARS-CoV Urbani / Binding of serum 2 to looped/cyclic peptides of protein N of SARS-CoV Urbani / Binding of serum 6 to looped/cyclic peptides of protein N of SARS-CoV Urbani / Binding of serum 37 to looped/cyclic peptides of protein N of SARS-CoV Urbani / Binding of serum 62 to looped/cyclic peptides of protein N of SARS-CoV Urbani / Binding of serum London to looped/cyclic peptides of protein N of SARS-CoV Urbani / Binding of serum SARS-green to looped/cyclic peptides of protein N of SARS-CoV Urbani: unit not given here
[2] = test system: control sera (pooled serum of ten healthy LUMC hospital workers; commercial negative donor pooled serum from the Dutch bloodbank); assay type: binding, human; set-up: Binding of Control serum LUMC to linear peptides / Binding of Control serum Blood-bank to linear peptides / Binding of Control serum LUMC to looped peptides / Binding of Control Serum Blood-Bank to Looped peptides / Binding of Control serum LUMC to linear peptides of the protein M of SARS-CoV Urbani / Binding of Control serum Blood-bank to linear peptides of the protein M of SARS-CoV Urbani / Binding of Control serum LUMC to looped peptides of the protein M of SARS-CoV Urbani / Binding of Control Serum Blood-Bank to Looped peptides of the protein M of SARS-CoV Urbani: unit not given here
[3] = test system: rabbit serum obtained by immunizing a rabbit with the SARS-CoV strain Frankfurt 1; assay type: binding; set-up: Binding of a rabbit serum to linear peptides / Binding of a rabbit serum to looped peptides / Rabbit serum linear peptides / Rabbit serum looped peptides / Binding of a rabbit serum to linear peptides of protein N of SARS-CoV Urbani (Rabbit serum linear peptides) / Binding of a rabbit serum to looped/cyclic peptides of protein N of SARS-CoV Urbani (Rabbit serum looped peptides): unit not given here
[4] = test system: recombinant human anti-SARS-CoV antibody 03-018; assay type: binding; set-up: Binding of antibody 03-018 to linear peptides of the N protein of SARS-CoV Urbani / Binding of antibody 03-018 to looped/cyclic peptides of the N protein of SARS-CoV Urbani: unit not given here

Sequence	Binding of serum 1a to looped/cyclic peptides of protein N of SARS-CoV Urbani [1]	Binding of serum 1b to looped/cyclic peptides of protein N of SARS-CoV Urbani [1]	Binding of serum 2 to looped/cyclic peptides of protein N of SARS-CoV Urbani [1]	Binding of serum 6 to looped/cyclic peptides of protein N of SARS-CoV Urbani [1]	Binding of serum 37 to looped/cyclic peptides of protein N of SARS-CoV Urbani [1]	Binding of serum 62 to looped/cyclic peptides of protein N of SARS-CoV Urbani [1]	Binding of serum London to looped/cyclic peptides of protein N of SARS-CoV Urbani [1]	Binding of serum SARS-green to looped/cyclic peptides of protein N of SARS-CoV Urbani [1]	Binding of serum SARS-yellow to looped/cyclic peptides of protein N of SARS-CoV Urbani [1]	Binding of Control Serum Blood-Bank to Looped peptides [2]	Binding of Control serum Blood-bank to linear peptides [2]	Binding of Control serum LUMC to linear peptides [2]	Binding of Control serum LUMC to looped peptides [2]	Binding of a rabbit serum to linear peptides of protein N of SARS-CoV Urbani (Rabbit serum linear peptides) [3]	Binding of a rabbit serum to looped/cyclic peptides of protein N of SARS-CoV Urbani (Rabbit serum looped peptides) [3]	Binding of antibody 03-018 to linear peptides of the N protein of SARS-CoV Urbani [4]	Binding of antibody 03-018 to looped/cyclic peptides of the N protein of SARS-CoV Urbani [4]	other results
QQQGQTVTKKSAAEA	0.5	0.3	0.7	0.5	0.6	0.7	0.6	0.9	0.6	0.6	0.6	0.5	0.6	0.0	0.0	0.1	0.2	Binding of serum 1a to linear peptide (PEPSCAN-ELISA) [1]: 0.6; Binding of serum 1b to linear peptide (PEPSCAN-ELISA) [1]: 0.2; Binding of serum 2 to linear peptide (PEPSCAN-ELISA) [1]: 0.5; Binding of serum 6 to linear peptide (PEPSCAN-ELISA) [1]: 0.2; Binding of serum 37 to linear peptide (PEPSCAN-ELISA) [1]: 0.5; Binding of serum 62 to linear peptide (PEPSCAN-ELISA) [1]: 0.5; Binding of serum London to linear peptide (PEPSCAN-ELISA) [1]: 0.6; Binding of serum SARS-green to linear peptide (PEPSCAN-ELISA) [1]: 0.3; Binding of serum SARS-yellow to linear peptide (PEPSCAN-ELISA) [1]: 0.6
TKKSAAEASKKPRQK	0.2	0.1	0.2	0.1	0.4	0.3	0.3	0.0	0.2	0.4	0.8	0.9	0.4	0.1	0.2	0.1	0.2	Recognition of the peptide by sera of SARS-CoV infected individuals, and form (linear, looped/cyclic) in which it is recognized [1]: recognized in linear form
NTNSGPDDQIGYYRR	0.5	0.4	0.5	0.3	0.9	0.8	0.5	0.6	0.6	0.7	0.7	0.7	0.9	0.1	0.6	0.1	0.3	Binding of serum 1a to linear peptides of protein N of SARS-CoV Urbani [1]: 0.2; Binding of serum 1b to linear peptides of protein N of SARS-CoV Urbani [1]: 0.1; Binding of serum 2 to linear peptides of protein N of SARS-CoV Urbani [1]: 0.2; Binding of serum 6 to linear peptides of protein N of SARS-CoV Urbani [1]: 0.2; Binding of serum 37 to linear peptides of protein N of SARS-CoV Urbani [1]: 0.6; Binding of serum 62 to linear peptides of protein N of SARS-CoV Urbani [1]: 0.6; Binding of serum London to linear peptides of protein N of SARS-CoV Urbani [1]: 0.4; Binding of serum SARS-green to linear peptides of protein N of SARS-CoV Urbani [1]: 0.3; Binding of serum SARS-yellow to linear peptides of protein N of SARS-CoV Urbani [1]: 0.7
